Test results reported in patent publication US20240247080A1, “GLP1/GIP/NPY2 RECEPTOR TRIPLE AGONISTS” (Boehringer Ingelheim International GmbH, priority 2022, published 2024).
Read-outs that look alike come from different tables or passages of the source. Starred links: 1 amine or outer side, 2 acyl side, 3 side chain; linkers in the order of their positions; H or OH if unused. Positions of bridges follow the written chain, without caps; N, C: chain ends. Non-standard residues stand in square brackets, D forms with d. Groups on a side chain read outwards from the residue. Chains are numbered I, II in the order given. No end group written: not given here. *: point of attachment. C20 diacid = O=C(O)CCCCCCCCCCCCCCCCCCC(=O)*; C18 diacid = O=C(O)CCCCCCCCCCCCCCCCC(=O)*; γGlu = O=C(O)[C@H](CCC(=O)[*:2])N[*:1]; εLys = N[C@@H](CCCCN[*:1])C(=O)[*:2]; AEEA = NCCOCCOCC(=O)O; Aib = CC(C)(N)C(=O)O

Tests used:
Format in all cases: cell-based
Conditions in all cases: CreLuc reporter gene assay
[1] = target: T1, hGLP1R (Homo sapiens, UniProt P43220); assay: hGLP1R CreLuc reporter gene assay in 0.5% and 100% plasma
T1 construct: expressed in transfected cells; host or cells: HEK-293 cells carrying a CRE-luciferase reporter gene
Summary of the method: (§1)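 HEK cells (GLP-1R, NPY2R) or CHO cells (GIPR) carrying a CRE-luciferase reporter, incubated 4 h at 37 °C with peptides in HBSS/20 mM HEPES pH 7.4 plus 0.5% human plasma, or in 100% plasma. Luminescence read; EC50 from 8-point variable-slope sigmoid fits.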

[2] = target: T2, hNPY2R (Homo sapiens, UniProt P49146); assay: hNPY2R CreLuc reporter gene assay in 0.5% and 100% plasma
T2 construct: expressed in transfected cells; host or cells: HEK-293 cells carrying a CRE-luciferase reporter gene
T2 sequence (P49146 1-381): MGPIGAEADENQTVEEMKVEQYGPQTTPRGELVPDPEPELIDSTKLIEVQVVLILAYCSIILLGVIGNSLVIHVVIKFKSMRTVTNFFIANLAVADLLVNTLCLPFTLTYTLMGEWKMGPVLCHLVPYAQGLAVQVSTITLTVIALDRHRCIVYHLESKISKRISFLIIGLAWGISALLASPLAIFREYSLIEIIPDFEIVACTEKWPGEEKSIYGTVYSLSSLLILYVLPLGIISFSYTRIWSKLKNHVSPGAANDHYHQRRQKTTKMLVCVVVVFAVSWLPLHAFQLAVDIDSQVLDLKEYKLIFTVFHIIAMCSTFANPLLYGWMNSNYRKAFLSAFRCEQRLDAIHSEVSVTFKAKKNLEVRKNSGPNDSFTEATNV
Summary of the method: as §1

[3] = target: T3, hGIPR (Homo sapiens, UniProt P48546); assay: hGIPR CreLuc reporter gene assay in 0.5% and 100% plasma
T3 construct: expressed in transfected cells; host or cells: CHO cells carrying a CRE-luciferase reporter gene
T3 sequence (P48546 22-466): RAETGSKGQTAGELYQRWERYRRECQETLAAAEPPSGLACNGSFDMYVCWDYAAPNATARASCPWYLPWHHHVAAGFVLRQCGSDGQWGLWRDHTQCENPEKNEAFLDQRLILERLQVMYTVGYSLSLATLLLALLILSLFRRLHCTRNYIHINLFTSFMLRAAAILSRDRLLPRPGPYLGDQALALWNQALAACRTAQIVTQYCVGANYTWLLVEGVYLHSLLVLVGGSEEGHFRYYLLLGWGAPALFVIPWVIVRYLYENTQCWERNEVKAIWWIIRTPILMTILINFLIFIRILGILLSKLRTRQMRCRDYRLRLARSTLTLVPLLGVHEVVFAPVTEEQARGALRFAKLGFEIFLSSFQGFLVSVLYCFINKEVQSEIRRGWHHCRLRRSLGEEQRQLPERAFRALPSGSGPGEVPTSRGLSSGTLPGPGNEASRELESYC
Summary of the method: as §1

[4] = 0.5% human plasma, read-out: hGLP1R 0.5% hP
[5] = 0.5% human plasma, read-out: hNPY2R 0.5% hP
[6] = 0.5% human plasma, read-out: hGIPR 0.5% hP
[7] = 100% human plasma, read-out: hGIPR 100% hP
[8] = 100% human plasma, read-out: hNPY2R 100% hP
[9] = 100% human plasma, read-out: hGLP1R 100% hP

T1 sequence (P43220 24-463): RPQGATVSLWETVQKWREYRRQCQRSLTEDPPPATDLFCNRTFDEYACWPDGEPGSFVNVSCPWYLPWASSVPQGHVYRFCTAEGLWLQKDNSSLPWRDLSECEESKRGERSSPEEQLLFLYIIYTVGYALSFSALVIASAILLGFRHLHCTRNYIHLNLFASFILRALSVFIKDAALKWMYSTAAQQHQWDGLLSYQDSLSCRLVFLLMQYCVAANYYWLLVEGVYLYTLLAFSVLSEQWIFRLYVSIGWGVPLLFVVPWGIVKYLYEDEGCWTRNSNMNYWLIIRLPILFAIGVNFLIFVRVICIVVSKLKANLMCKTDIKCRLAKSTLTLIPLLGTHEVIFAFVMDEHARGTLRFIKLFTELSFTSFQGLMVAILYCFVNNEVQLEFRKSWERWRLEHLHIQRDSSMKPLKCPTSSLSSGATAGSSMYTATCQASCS

Molecule	EC50 [1, 4]	EC50 [2, 5]	EC50 [3, 6]	EC50 [3, 7]	EC50 [2, 8]	EC50 [1, 9]
I: H-Y[Aib]EGTFTSDYSI[Aib]LEKQAQ[Aib]AFVQWLIKGGPESGASLRHYYNWLTRQRY-NH2 / II: {C18 diacid}-EEEEE[εLys] (amide I:28-II:C) [Compound 63, Y-Aib-E-G-T-F-T-S-D-Y-S-I-Aib-L-E-K-Q-A-Q-Aib-A-F-V-Q-W-L-I-K(1,3)-GGPESGASLRHYYNWLTRQRY-NH2.C18DA-E-E-E-E-E-eLys(1,2)]	80 pM	15200 pM	130 pM	890 pM	–	–
H-Y[Aib]EGTFTSDYSI[Aib]LEKQAQ[Aib]AFVEWLIK([AEEA-AEEA-Glu-Glu-Glu-C18 diacid])GGPSEGASLRHYYNWLTRQRY-NH2 [Compound 298, Y-Aib-E-G-T-F-T-S-D-Y-S-I-Aib-L-E-K-Q-A-Q-Aib-A-F-V-E-W-L-I-K(1,3)-GGPSEGASLRHYYNWLTRQRY-NH2.C18DA-E-E-E-OEG-OEG(1,2)]	110 pM	12100 pM	130 pM	1270 pM	–	–
H-Y[Aib]EGTFTSDYSI[Aib]LEGQAQ[Aib]AFVEWLIK([εLys-γGlu-γGlu-γGlu-γGlu-γGlu-γGlu-C20 diacid])GGPSSGASLRHYYNWLTRQRY-NH2 [Compound 99, Y-Aib-E-G-T-F-T-S-D-Y-S-I-Aib-L-E-G-Q-A-Q-Aib-A-F-V-E-W-L-I-K(1,3)-GGPSSGASLRHYYNWLTRQRY-NH2.C20DA-gGlu-gGlu-gGlu-gGlu-gGlu-gGlu-eLys(1,2)]	410 pM	16800 pM	910 pM	–	–	–
H-Y[Aib]EGTFTSDYSI[Aib]LERQAQ[Aib]AFVEWLIK([εLys-γGlu-γGlu-γGlu-γGlu-γGlu-γGlu-C20 diacid])GGPSSGASLRHYYNWLTRQRY-NH2 [Compound 131, Y-Aib-E-G-T-F-T-S-D-Y-S-I-Aib-L-E-R-Q-A-Q-Aib-A-F-V-E-W-L-I-K(1,3)-GGPSSGASLRHYYNWLTRQRY-NH2.C20DA-gGlu-gGlu-gGlu-gGlu-gGlu-gGlu-eLys(1,2)]	110 pM	18200 pM	350 pM	2940 pM	–	–
H-Y[Aib]EGTFTSDYSI[Aib]LEKQAQ[Aib]AFVEWLIK([εLys-γGlu-γGlu-γGlu-γGlu-γGlu-γGlu-C20 diacid])GGPSSGVS[Aib]RHYYNWLTRQRY-NH2 [Compound 38, Y-Aib-E-G-T-F-T-S-D-Y-S-I-Aib-L-E-K-Q-A-Q-Aib-A-F-V-E-W-L-I-K(1,3)-G-G-P-S-S-G-V-S-Aib-R-H-Y-Y-N-W-L-T-R-Q-R-Y-NH2.C20DA-gGlu-gGlu-gGlu-gGlu-gGlu-gGlu-eLys(1,2)]	60 pM	–	–	700 pM	17800 pM	–
CC[C@H](C)[C@H](NC(=O)[C@H](CO)NC(=O)[C@H](Cc1ccc(O)cc1)NC(=O)[C@H](CC(=O)O)NC(=O)[C@H](CO)NC(=O)[C@@H](NC(=O)[C@H](Cc1ccccc1)NC(=O)[C@@H](NC(=O)CNC(=O)[C@H](CCC(=O)O)NC(=O)C(C)(C)NC(=O)[C@@H](N)Cc1ccc(O)cc1)[C@@H](C)O)[C@@H](C)O)C(=O)NC(C)(C)C(=O)N[C@@H](CC(C)C)C(=O)N[C@@H](CCC(=O)O)C(=O)N[C@@H](CCCCN)C(=O)N[C@@H](CCC(N)=O)C(=O)N[C@@H](C)C(=O)N[C@@H](CCC(N)=O)C(=O)NC(C)(C)C(=O)N[C@@H](C)C(=O)N[C@@H](Cc1ccccc1)C(=O)N[C@H](C(=O)N[C@@H](CCC(=O)O)C(=O)N[C@@H](Cc1c[nH]c2ccccc12)C(=O)N[C@@H](CC(C)C)C(=O)N[C@@H](CC(C)C)C(=O)N[C@@H](CCCCNC(=O)[C@@H](N)CCCCNC(=O)CC[C@H](NC(=O)CC[C@H](NC(=O)CC[C@H](NC(=O)CC[C@H](NC(=O)CC[C@H](NC(=O)CC[C@H](NC(=O)CCCCCCCCCCCCCCCCCCC(=O)O)C(=O)O)C(=O)O)C(=O)O)C(=O)O)C(=O)O)C(=O)O)C(=O)NCC(=O)NCC(=O)N1CCC[C@H]1C(=O)N[C@@H](CO)C(=O)N[C@@H](CO)C(=O)NCC(=O)N[C@@H](C)C(=O)N[C@@H](CO)C(=O)N[C@@H](CC(C)C)C(=O)N[C@@H](CCCNC(=N)N)C(=O)N[C@@H](Cc1c[nH]cn1)C(=O)N[C@@H](Cc1ccc(O)cc1)C(=O)N[C@@H](Cc1ccc(O)cc1)C(=O)N[C@@H](CC(N)=O)C(=O)N[C@@H](Cc1c[nH]c2ccccc12)C(=O)N[C@@H](CC(C)C)C(=O)N[C@H](C(=O)N[C@@H](CCCNC(=N)N)C(=O)N[C@@H](CCC(N)=O)C(=O)N[C@@H](CCCNC(=N)N)C(=O)N[C@@H](Cc1ccc(O)cc1)C(N)=O)[C@@H](C)O)C(C)C [Compound 109, Y-Aib-E-G-T-F-T-S-D-Y-S-I-Aib-L-E-K-Q-A-Q-Aib-A-F-V-E-W-L-L-K(1,3)-GGPSSGASLRHYYNWLTRQRY-NH2.C20DA-gGlu-gGlu-glu-gGlu-gGlu-Glu-eLys(1,2)]	280 pM	10800 pM	90 pM	640 pM	–	–
H-Y[Aib]EGTFTSDYSI[Aib]LEAAKQ[Aib]AFVEWLIK([εLys-γGlu-γGlu-γGlu-γGlu-γGlu-γGlu-C20 diacid])GGPSSGASLRHYYNWLTRQRY-NH2 [Compound 25, Y-Aib-E-G-T-F-T-S-D-Y-S-I-Aib-L-E-A-A-K-Q-Aib-A-F-V-E-W-L-I-K(1,3)-GGPSSGASLRHYYNWLTRQRY-NH2.C20DA-gGlu-gGlu-gGlu-gGlu-gGlu-gGlu-eLys(1,2)]	–	13000 pM	980 pM	–	–	14200 pM
Y[Aib]EGTFTSDYSI[Aib]LEKQAQ[Aib]AFVEWLIK([εLys-γGlu-γGlu-γGlu-γGlu-γGlu-C18 diacid])GGPSEGASLRHYYNWLTRQRY-NH2 [Compound 295, Y-Aib-E-G-T-F-T-S-D-Y-S-I-Aib-L-E-K-Q-A-Q-Aib-A-F-V-E-W-L-I-K(1,3)-GGPSEGASLRHYYNWLTRQRY-NH2.C18DA-gGlu-gGlu-glu-gGlu-gGlu-eLys(1,2)]	140 pM	10900 pM	300 pM	980 pM	–	–
H-Y[Aib]EGTFTSDYSI[Aib]LESQAQ[Aib]AFVEWLIK([εLys-γGlu-γGlu-γGlu-γGlu-γGlu-γGlu-C20 diacid])GGPSSGASLRHYYNWLTRQRY-NH2 [Compound 121, Y-Aib-E-G-T-F-T-S-D-Y-S-I-Aib-L-E-S-Q-A-Q-Aib-A-F-V-E-W-L-I-K(1,3)-GGPSSGASLRHYYNWLTRQRY-NH2.C20DA-gGlu-gGlu-gGlu-gGlu-gGlu-gGlu-eLys(1,2)]	180 pM	23800 pM	650 pM	–	–	–
H-Y[Aib]EGTFTSDYSI[Aib]LEKQAQ[Aib]AFVQWLIK([AEEA-AEEA-γGlu-γGlu-γGlu-γGlu-C18 diacid])GGPEEGASLRHYYNWLTRQRY-NH2 [Compound 146, Y-Aib-E-G-T-F-T-S-D-Y-S-I-Aib-L-E-K-Q-A-Q-Aib-A-F-V-Q-W-L-I-K(1,3)-GGPEEGASLRHYYNWLTRQRY-NH2.C18DA-gGlu-gGlu-gGlu-gGlu-OEG-OEG(1,2)]	140 pM	14000 pM	770 pM	730 pM	–	–
H-Y[Aib]EGTFTSDYSI[Aib]LEKQAQ[Aib]AFVQWLIK([AEEA-AEEA-γGlu-γGlu-γGlu-γGlu-γGlu-C18 diacid])GGPESGASLRHYYNWLTRQRY-NH2 [Compound 55, Y-Aib-E-G-T-F-T-S-D-Y-S-I-Aib-L-E-K-Q-A-Q-Aib-A-F-V-Q-W-L-I-K(1,3)-GGPESGASLRHYYNWLTRQRY-NH2.C18DA-gGlu-gGlu-glu-gGlu-gGlu-OEG-OEG(1,2)]	90 pM	–	120 pM	–	53400 pM	4170 pM
H-Y[Aib]EGTFTSDYSI[Aib]LEKQAQ[Aib]AFVEWLIK([εLys-γGlu-γGlu-γGlu-γGlu-γGlu-γGlu-C20 diacid])GGPSSGASL[Aib]HYYNWLTRQRY-NH2 [Compound 129, Y-Aib-E-G-T-F-T-S-D-Y-S-I-Aib-L-E-K-Q-A-Q-Aib-A-F-V-E-W-L-I-K(1,3)-G-G-P-S-S-G-A-S-L-Aib-H-Y-Y-N-W-L-T-R-Q-R-Y-NH2.C20DA-gGlu-gGlu-gGlu-gGlu-gGlu-gGlu-eLys(1,2)]	40 pM	30900 pM	60 pM	500 pM	87600 pM	–
